Molecules are shown by their SMILES.

For the first assay, the target named is T1, PLpro of SARS-CoV-2 (Severe acute respiratory syndrome coronavirus 2, UniProt P0DTD1). Kind of assay: Enzyme activity test in vitro: inhibition of PLpro at fixed concentration 50 μM (RLRGG-AMC substrate). As to conditions: compound 50 μM, 10 min preincubation at 37° C., Table 1; read-out: Inhibition rate at 50 μM (%). In kind it is biochemical.
Regarding `COc1cc(-c2nc3cnccn3c2Nc2ccc(C(=O)O)cc2)ccc1O` [P19455, 4-[[2-(4-hydroxy-3-methoxyphenyl)imidazo[1,2-a]pyrazin-3-yl]amino]benzoic acid], the inhibition (as a rule, the share of the control response that was lost under treatment) at 50 µM turned out to be 53.1%.

In the case of `Cc1ccc(-c2nc3cnccn3c2Nc2ccc(C(N)=O)cc2)cc1` [P19452, 4-[[2-(4-methyl-phenyl)imidazo[1,2-a]pyrazin-3-yl]amino] benzamide], the inhibition at 50 µM was found to be 53.1%.

For `COc1ccc(-c2nc3cnccn3c2Nc2ccc(C(N)=O)cc2)cc1OC` [P19454, 4-[[2-(3,4-dimethoxy-phenyl)imidazo [1,2-a]pyrazin-3-yl]amino]benzamide], the inhibition at 50 µM was determined as 53.8%.

Consider `Cc1ccc(-c2nc3cnccn3c2Nc2ccc(C(=O)N3CCOCC3)cc2)cc1` [P22415, [4-[[2-(4-methyl-phenyl)imidazo[1,2-a]pyrazin-3-yl]amino]phenyl]-morpholin-4-ylmethanone], for which the inhibition at 50 µM amounted to 63.3%.

In the case of `CNC(=O)c1cccc(Nc2c(-c3ccc(N(C)C)cc3)nc3cnccn23)c1` [P19443, 3-[[2-[4-(dimethyl-amino)phenyl]imidazo [1,2-a]pyrazin-3-yl]amino]-N-methyl-benzamide], the inhibition at 50 µM turned out to be 53%.

Still in this assay, the particulars now being: read-out: Inhibition rate at 50 μM (%).
Regarding `CN(C)CCNC(=O)c1ccc(Nc2c(-c3ccccc3)nc3cnccn23)cc1` [P22433, N-[2-(dimethylamino)ethyl]-4-[(2-phenyl-imidazo[1,2-a]pyrazin-3-yl)amino] benzamide], the inhibition at 50 µM came to 30.5%.

For the molecule `COc1ccc(-c2nc3cnccn3c2Nc2ccc(C(=O)NCCN3CCOCC3)cc2)cc1` [P22403, 4-[[2-(4-methoxy-phenyl)imidazo[1,2-a]pyrazin-3-yl]amino]-N-(2-morpholin-4-ylethyl)benzamide], the inhibition at 50 µM stood at 31.7%.

Turning to `CCOC(=O)c1ccc(Nc2c(-c3cccc(O)c3)nc3cnccn23)cc1` [P22552, ethyl 4-[[2-(3-hydroxy-phenyl)imidazo[1,2-a]pyrazin-3-yl]amino] benzoate], the inhibition at 50 µM was determined as 19.9%.

With `CNC(=O)c1ccc(Nc2c(-c3ccc(OC)c(OC)c3)nc3cnccn23)cc1` [P19464, 4-[[2-(3,4-dimethoxy-phenyl)imidazo[1,2-a]pyrazin-3-yl]amino]-N-methyl-benzamide], the inhibition at 50 µM turned out to be 42.2%.

As to `COC(=O)c1ccc(-c2nc3cnccn3c2Nc2ccc(C(C)C)cc2)cc1` [P37297, methyl 4-[3-(4-propan-2-ylanilino)imidazo[1,2-a]pyrazin-2-yl] benzoate], the inhibition at 50 µM was determined as 22.3%.

For `COc1ccc(-c2nc3cnccn3c2Nc2ccc3c(c2)OCO3)cc1OC` [P19444, N-(1,3-benzodioxol-5-yl)-2-(3,4-dimethoxy-phenyl)imidazo [1,2-a]pyrazin-3-amine], the inhibition at 50 µM was found to be 42.2%.

Regarding `COc1ccc(-c2nc3cnccn3c2Nc2ccc(C(=O)N3CCOCC3)cc2)cc1` [P22405, [4-[[2-(4-methoxy-phenyl)imidazo[1,2-a]pyrazin-3-yl]amino]phenyl]-morpholin-4-ylmethanone], the inhibition at 50 µM was 36.5%.

With `Cc1ccc(-c2nc3cnccn3c2Nc2ccc(C(=O)NC3CCCCC3)cc2)cc1` [P22434, N-cyclohexyl-4-[[2-(4-methylphenyl)imidazo[1,2-a]pyrazin-3-yl]amino]benzamide], the inhibition at 50 µM was 41.1%.

As for `O=C(O)c1cccc(Nc2c(-c3ccc(O)cc3)nc3cnccn23)c1` [P19496, 3-[[2-(4-hydroxy-phenyl)imidazo[1,2-a]pyrazin-3-yl]amino] benzoic acid], the inhibition at 50 µM turned out to be 40.5%.

With `COc1ccc(Nc2c(-c3ccc(OC)c(OC)c3)nc3cnccn23)cc1` [P19493, 2-(3,4-dimethoxy-phenyl)-N-(4-methoxy-phenyl)imidazo[1,2-a]pyrazin-3-amine], the inhibition at 50 µM was 32.3%.

For the molecule `CN(C)c1ccc(-c2nc3cnccn3c2Nc2cccc(C(N)=O)c2)cc1` [P22406, 3-[[2-[4-(dimethyl-amino)phenyl]imidazo [1,2-a]pyrazin-3-yl]amino]benzamide], the inhibition at 50 µM was 37.2%.

Take `O=C(O)c1cccc(Nc2c(-c3cccc(O)c3)nc3cnccn23)c1` [P37338, 3-[[2-(3-hydroxy-phenyl)imidazo[1,2-a]pyrazin-3-yl]amino] benzoic acid]: the inhibition at 50 µM stood at 11.7%.

In the case of `COc1ccc(-c2nc3cnccn3c2Nc2ccc(Cl)cc2)cc1OC` [P19503, N-(4-chlorophenyl)-2-(3,4-dimethoxy-phenyl)imidazo[1,2-a]pyrazin-3-amine], the inhibition at 50 µM is 43.6%.

Consider `COC(=O)c1cccc(Nc2c(-c3ccc(O)c(OC)c3)nc3cnccn23)c1` [P19505, methyl 3-[[2-(4-hydroxy-3-methoxyphenyl)imidazo [1,2-a]pyrazin-3-yl]amino]benzoate], for which the inhibition at 50 µM amounted to 44.7%.

Turning to `O=C(O)c1cccc(Nc2c(-c3cc(Br)ccc3O)nc3cnccn23)c1` [P19487, 3-[[2-(5-bromo-2-hydroxyphenyl)imidazo [1,2-a]pyrazin-3-yl]amino]benzoic acid], the inhibition at 50 µM was determined as 27.3%.

With `O=C(c1cccc(Nc2c(-c3ccc(Cl)cc3)nc3cnccn23)c1)N1CCOCC1` [P22429, [3-[[2-(4-chlorophenyl)imidazo[1,2-a]pyrazin-3-yl]amino]phenyl]-morpholin-4-ylmethanone], the inhibition at 50 µM was determined as 24.7%.

On to `COc1ccc(-c2nc3cnccn3c2Nc2ccc(C(=O)N3CCCCC3)cc2)cc1` [P22454, [4-[[2-(4-methoxy-phenyl)imidazo[1,2-a]pyrazin-3-yl]amino]phenyl]-piperidin-1-ylmethanone], for which the inhibition at 50 µM came out at 31.8%.

Take `CCNC(=O)c1cccc(Nc2c(-c3ccc(Cl)cc3)nc3cnccn23)c1` [P22456, 3-[[2-(4-chlorophenyl)imidazo[1,2-a]pyrazin-3-yl]amino]-N-ethylbenzamide]: the inhibition at 50 µM amounted to 30.3%.

`CSc1ccc(-c2nc3cnccn3c2Nc2cccc(C(=O)N3CCOCC3)c2)cc1` [P22439, [3-[[2-(4-methyl-sulfanylphenyl)imidazo [1,2-a]pyrazin-3-yl]amino]phenyl]-morpholin-4-ylmethanone]: the inhibition at 50 µM worked out at 23.2%.

`O=C(O)c1cccc(Nc2c(-c3cccc(Br)c3)nc3cnccn23)c1` [P19467, 3-[[2-(3-bromophenyl)imidazo[1,2-a]pyrazin-3-yl]amino] benzoic acid]: the inhibition at 50 µM worked out at 27.3%.

With `COc1ccc(-c2nc3cnccn3c2Nc2ccc(C(=O)NC(C)C)cc2)cc1OC` [P22420, 4-[[2-(3,4-dimethoxy-phenyl)imidazo[1,2-a]pyrazin-3-yl]amino]-N-propan-2-ylbenzamide], the inhibition at 50 µM was 43.9%.

Consider `CCOC(=O)c1ccc(Nc2c(-c3ccc(N(C)C)cc3)nc3cnccn23)cc1` [P22502, ethyl 4-[[2-[4-(dimethyl-amino)phenyl]imidazo [1,2-a]pyrazin-3-yl]amino]benzoate], for which the inhibition at 50 µM is 14.4%.

Take `O=C(O)c1ccc(Nc2c(-c3cccc(Cl)c3)nc3cnccn23)cc1` [P22493, 4-[[2-(3-chlorophenyl)imidazo[1,2-a]pyrazin-3-yl]amino] benzoic acid]: the inhibition at 50 µM is 13.2%.

The target in a further assay is T1, PLpro of SARS-CoV-2. Kind of assay: IC50 determination of inhibition of PLpro activity (RLRGG-AMC substrate). Format: biochemical. To be noted: 13 concentrations 100 μM to 0.0244 μM, GraphPad Prism.
Turning to `COc1cc(-c2nc3cnccn3c2Nc2ccc(C(=O)O)cc2)ccc1O` [P19455, 4-[[2-(4-hydroxy-3-methoxyphenyl)imidazo[1,2-a]pyrazin-3-yl]amino]benzoic acid], it took 26.6 µM to reach half-maximal inhibition (IC50).

In the case of `Cc1ccc(-c2nc3cnccn3c2Nc2ccc(C(N)=O)cc2)cc1` [P19452, 4-[[2-(4-methyl-phenyl)imidazo[1,2-a]pyrazin-3-yl]amino] benzamide], inhibition was half-maximal at 28.4 µM (IC50).

Turning to `COc1ccc(-c2nc3cnccn3c2Nc2ccc(C(N)=O)cc2)cc1OC` [P19454, 4-[[2-(3,4-dimethoxy-phenyl)imidazo [1,2-a]pyrazin-3-yl]amino]benzamide], half-maximal inhibition (IC50) required 36.8 µM.

Consider `Cc1ccc(-c2nc3cnccn3c2Nc2ccc(C(=O)N3CCOCC3)cc2)cc1` [P22415, [4-[[2-(4-methyl-phenyl)imidazo[1,2-a]pyrazin-3-yl]amino]phenyl]-morpholin-4-ylmethanone], for which the IC50 (usually the point on the concentration scale where inhibition reaches its midpoint) was determined as 49.7 µM.

Molecule `CNC(=O)c1cccc(Nc2c(-c3ccc(N(C)C)cc3)nc3cnccn23)c1` [P19443, 3-[[2-[4-(dimethyl-amino)phenyl]imidazo [1,2-a]pyrazin-3-yl]amino]-N-methyl-benzamide] returned an IC50 of 31.1 µM.

For the origin of these results see patent US20250032485A1, “APPLICATION OF IMIDAZO [1,2-A] PYRAZINE COMPOUNDS OR THEIR PHARMACEUTICALLY ACCEPTABLE SALTS IN THE PREPARATION OF ANTI-CORONAVIRUS DRUGS” (GUANGZHOU MEDICAL UNIVERSITY, priority 2023, published 2025).
